One assay concerns SKBr3 cells. Put plainly: Cytotoxicity against SKBr3 cells (CellTiter-Glo, 72 h). Format: cell-based. To be noted: Homo sapiens, SK-BR-3, 72 h, read-out: Cytotoxicity against SKBr3 Cells (IC50, μM). As to the method: Cytotoxicity was determined with SKBr3 cells (ATCC HTB-30), a breast cancer cell line. […] Cells were plated into 96-well microtiter back plates at 4,000 cells per 50μL per well, overnight. Serial 10x dilutions of test compound (10 μM to 0.1 pM) in cell culture media were prepared with a Biomek 2000 apparatus, using the protocols of deeper-1000 μL-media and deeper-1000 μL-dilution. 50 μL of each dilution was added to wells containing cells. Each compound or control (medium only) was tested in duplicate. For each assay, the wells contained a final volume of 100 μL (50 μL of cells and 50 μL of compound dilution). […] CellTiter-Glo Luminescent Reagent (Promega #G7573) (100 μL) was added to each well. The well contents were mixed for 5 min and the plates were kept at room temperature for another 30 min. Luminescence was recorded using a Wallac VICTOR^2 Multilabel Counter (PerkinElmer) and IC50 values were determined using Kaleidagraph software (Synergy Software).

Another assay addresses Hsp90 (Homo sapiens, UniProt P07900). Put plainly: Hsp90 filter binding assay.
The subject of a further assay is CCFT-CEM cells. The assay can be described thus: Cytotoxicity against CCFT-CEM cells. The note with it: read-out: IC50, cytotoxicity against CCFT-CEM cells.

Bounds are passed on as bounds.

On to `CO[C@H]1C[C@H](C)Cc2cc(O)cc(c2)NC(=O)/C=C/CC[C@H](OC)[C@@H](OC(N)=O)/C(C)=C/[C@H](C)[C@H]1O` [Compound 1-A], for which the IC50 in the assay on SKBr3 cells was determined as 0.85 µM; with CCFT-CEM cells, 2500 nM. Moreover, at Hsp90, the affinity, expressed as Kd, was 17 nM.
Regarding `C=CCOc1cc2cc(c1)NC(=O)C=CCCC(OC)C(OC(N)=O)C(C)=CC(C)C(O)C(OC)CC(C)C2` (centres unmarked) [Compound 1-B], in the assay on SKBr3 cells, the IC50 was more than 5 µM. The Kd at Hsp90 was 1000 nM.
`COC1CCC=CC(=O)Nc2cc(cc(OCCN(C)C)c2)CC(C)CC(OC)C(O)C(C)C=C(C)C1OC(N)=O` (centres unmarked) [Compound 1-C]: the IC50 in the assay on SKBr3 cells is more than 10 µM. Besides, on Hsp90, the Kd was 230 nM.
The like results for `COc1cc2cc(c1)NC(=O)C=CCCC(OC)C(OC(N)=O)C(C)=CC(C)C(O)C(OC)CC(C)C2` (centres unmarked) [Compound 1-D] were, in that order, 6 µM and 510 nM.
Turning to `COC1CCC=CC(=O)Nc2cc(cc(OCC(N)=O)c2)CC(C)CC(OC)C(O)C(C)C=C(C)C1OC(N)=O` (centres unmarked) [Compound 1-E], in the assay with SKBr3 cells, the IC50 is more than 5 µM. The molecule also came in with a Kd at Hsp90 of 440 nM.
The like results for `COC1CCC=CC(=O)Nc2cc(cc(O)c2CN(C)C)CC(C)CC(OC)C(O)C(C)C=C(C)C1OC(N)=O` (centres unmarked) [Compound 1-F] were, in that order, 0.63 µM and 200 nM.
For `COC1CCC=CC(=O)Nc2cc(cc(O)c2CN2CCOCC2)CC(C)CC(OC)C(O)C(C)C=C(C)C1OC(N)=O` (centres unmarked) [Compound 1-G], in that order: more than 5 µM and 640 nM.
For `COC(=O)COc1cc2cc(c1)NC(=O)C=CCCC(OC)C(OC(N)=O)C(C)=CC(C)C(O)C(OC)CC(C)C2` (centres unmarked) [Compound 1-H], in that order: more than 5 µM and 360 nM.
As to `COC1CCC=CC(=O)Nc2cc(cc(OCC(=O)O)c2)CC(C)CC(OC)C(O)C(C)C=C(C)C1OC(N)=O` (centres unmarked) [Compound 1-I], the IC50 in the assay with SKBr3 cells is more than 5 µM. At Hsp90, this molecule came in with a Kd of 930 nM.
For the molecule `COC1CCC=CC(=O)Nc2cc(cc(O)c2Br)CC(C)CC(OC)C(O)C(C)C=C(C)C1OC(N)=O` (centres unmarked) [Compound 1-J], the IC50 with SKBr3 cells is more than 5 µM. For the same molecule, the Kd on Hsp90 was 1700 nM.
For `COC1CCC=CC(=O)Nc2cc(O)c(Br)c(c2)CC(C)CC(OC)C(O)C(C)C=C(C)C1OC(N)=O` (centres unmarked) [Compound 1-K], in that order: 0.8 µM and 140 nM.
For `COC1CCC=CC(=O)Nc2cc(c(Br)c(O)c2Br)CC(C)CC(OC)C(O)C(C)C=C(C)C1OC(N)=O` (centres unmarked) [Compound 1-M], in that order: more than 5 µM and 5900 nM.
For `COC1CCC=CC(=O)Nc2cc(c(CN(C)CCN(C)C)c(O)c2Br)CC(C)CC(OC)C(O)C(C)C=C(C)C1OC(N)=O` (centres unmarked) [Compound 1-N], in that order: more than 5 µM and 31000 nM.
`COC1=C2C[C@@H](C)C[C@H](OC)[C@H](O)[C@@H](C)/C=C(\C)[C@H](OC(N)=O)[C@@H](OC)/C=C\C=C(/C)C(=O)NC(=CC1=O)C2=O` [Geldanamycin, reference compound]: the IC50 in the assay with SKBr3 cells was found to be 0.023 µM.
As for `CO[C@H]1C[C@H](C)Cc2cc(O)cc(c2)NC(=O)CC(O)CC[C@H](OC)[C@@H](OC(N)=O)/C(C)=C/[C@H](C)[C@H]1O` (some centres unmarked) [III], the IC50 in the assay on SKBr3 cells was more than 5 µM. The molecule further returned a Kd on Hsp90 of 1000 nM.
Consider `CO[C@H]1C[C@H](C)Cc2cc(O)cc(c2)NC(=O)CC(O)CC[C@H](OC)[C@@H](O)/C(C)=C/[C@H](C)[C@H]1O` (some centres unmarked) [IV], for which the IC50 in the assay with SKBr3 cells was more than 5 µM. Moreover, the Kd at Hsp90 came to 17000 nM.

The record behind these values is patent US7241754B2, “2-Desmethyl ansamycin compounds” (priority 2003, dated 2007).
